Our source for the IC50 values is ChEMBL document CHEMBL5728913, “Indoleamine 2,3-dioxygenase inhibitor, method for preparation and use thereof” (2022).

“And” between values parts separate entries of the source, which are not always exact repeats. Equal entries are not always repeated.

This experiment deals with Indoleamine 2,3-dioxygenase 1 (Homo sapiens, UniProt P14902). Kind of experiment: Inhibitory Activity Assay: 1. […] Reagent Preparation100 mM PBS:100 mM disodium hydrogen phosphate and 100 mM potassium dihydrogen phosphate mixed in a ratio of 3:5, pH 6.5IDO1 assay buffer:100 mM PBS containing 400 μM L-tryptophan, 20 mM ascorbate, 20 μM methylene blue and 1000 U/ml catalase, pH 6.530% trichloroacetic acidddH2 O solution of 30% trichloroacetic acidEhrlich reagent1% (w/v) diluted solution of 4-(dimethylamino) benzaldehyde compoundAll compounds were dissolved with DMSO. During the assay, each compound was diluted to a concentration as needed. The compound of each concentration was added to multi-wells, and the final concentration of DMSO was controlled at 1%.3. Test Methoda.) the reaction mixture was prepared by adding 50 nM IDO1 and the desired concentration of the test compound to 100 μL of IDO1 assay buffer. IDO1 and assay buffer need to be preheated to 37° C.b.) The mixture was reacted in a constant temperature water tank at 37° C. for 30 minutes.c.) 50 μL of 30% trichloroacetic acid was added.d.) The above mixture was reacted in a constant temperature water tank at 52° C. for 30 minutes.e.) The reaction mixture was centrifuged at 12000 g for 10 minutes at room temperature.f.) 100 μL of the obtained supernatant and 100 μL of Ehrlich reagent were mixed.g.) the absorbance at 480 nm was measured using an M5 microplate reader.4. Data AnalysisInhibition rate=(ODpostive−ODsample)/(ODpositive−ODnegative)*100%5. Results and Discussion.
Chain of Indoleamine 2,3-dioxygenase 1 (P14902 whole entry): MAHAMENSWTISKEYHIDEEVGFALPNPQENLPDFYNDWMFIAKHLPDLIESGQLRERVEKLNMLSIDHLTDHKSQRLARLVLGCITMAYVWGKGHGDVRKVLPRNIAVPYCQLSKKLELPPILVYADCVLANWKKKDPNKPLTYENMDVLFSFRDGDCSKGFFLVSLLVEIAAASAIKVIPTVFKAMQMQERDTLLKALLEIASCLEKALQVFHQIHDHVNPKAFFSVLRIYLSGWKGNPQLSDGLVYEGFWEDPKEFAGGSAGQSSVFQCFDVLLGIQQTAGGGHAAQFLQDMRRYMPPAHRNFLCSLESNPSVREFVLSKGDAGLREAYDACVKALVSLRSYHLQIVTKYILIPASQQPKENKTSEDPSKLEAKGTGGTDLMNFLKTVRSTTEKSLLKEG
For orientation: IC50 means the point on the concentration scale where inhibition reaches its midpoint. As for `NCCONc1nonc1/C(=N/O)Nc1ccc(F)c(Br)c1`, the IC50 is 35 nM and 43 nM.
To `O=C1CCC(=O)N1CCONc1nonc1/C(=N/O)Nc1ccc(F)c(Br)c1` belongs 96 nM; to `O/N=C(\Nc1ccc(F)c(Br)c1)c1nonc1NOC1CCCNC1` (stereo not drawn), 80 nM.
To `O/N=C(\Nc1ccc(F)c(Br)c1)c1nonc1NOCCN1CCOCC1` belongs 43 nM and 38 nM; to `CC(=O)ONc1nonc1/C(=N/O)Nc1ccc(F)c(Br)c1`, 92 nM; to `O=C(NCCONc1nonc1/C(=N/O)Nc1ccc(F)c(Br)c1)NC1CCCC1`, 69 nM.
As to `O=C(NCCONc1nonc1/C(=N/O)Nc1ccc(F)c(Br)c1)Nc1cc(F)cc(F)c1`, the IC50 is 12 nM.
Regarding `CSNc1nonc1/C(=N/O)Nc1ccc(F)c(Cl)c1`, the IC50 amounted to 53 nM.
To `O=C(Nc1ccccc1)ONc1nonc1/C(=N/O)Nc1ccc(F)c(Br)c1` belongs 48 nM.
To `O=C(ONc1nonc1/C(=N/O)Nc1ccc(F)c(Br)c1)c1ccccc1` belongs 65 nM; to `O/N=C(\Nc1ccc(F)c(Br)c1)c1nonc1NOCCOc1ccccc1`, 120 nM; to `NC(=O)C(N)CCONc1nonc1/C(=N/O)Nc1ccc(F)c(Br)c1` (stereo not drawn), 85 nM.
To `O/N=C(\Nc1ccc(F)c(Cl)c1)c1nonc1NS` belongs 104 nM.
Take `NC1CCC(ONc2nonc2/C(=N/O)Nc2ccc(F)c(Br)c2)CC1` (stereo not drawn): the IC50 worked out at 184 nM.
To `O/N=C(\Nc1ccc(F)c(Br)c1)c1nonc1NO` belongs 125 nM; to `O=C1C=CC(=O)N1CCONc1nonc1/C(=N/O)Nc1ccc(F)c(Cl)c1`, 32 nM and 58 nM.
For the compound `CC(C)OC(=O)NCCONc1nonc1/C(=N/O)Nc1ccc(F)c(Br)c1`, the IC50 is 36 nM and 28 nM.
For `O/N=C(\Nc1ccc(F)c(Br)c1)c1nonc1NOCCN1CCCC1`, the IC50 worked out at 108 nM.
For `CC(=O)NCCONc1nonc1/C(=N/O)Nc1ccc(F)c(Br)c1`, the IC50 came out at 162 nM.
To `NS(=O)(=O)NCC1(CONc2nonc2/C(=N/O)Nc2ccc(F)c(Br)c2)CC1` belongs 82 nM.
Take `CCCCONc1nonc1/C(=N/O)Nc1ccc(F)c(Br)c1`: the IC50 worked out at 80 nM.
Consider `O=C(NCCOCCONc1nonc1/C(=N/O)Nc1ccc(F)c(Br)c1)Nc1cc(F)cc(F)c1`, for which the IC50 was determined as 72 nM.
Take `NS(=O)(=O)N1CCC(ONc2nonc2/C(=N/O)Nc2ccc(F)c(Br)c2)CC1`: the half-inhibitory concentration (IC50) came to 65 nM.
